{"source": "paper PMC9102668", "about": "“Highly Cytotoxic Osmium(II) Compounds and Their Ruthenium(II) Analogues Targeting Ovarian Carcinoma Cell Lines and Evading Cisplatin Resistance Mechanisms” (International Journal of Molecular Sciences, 2022)", "test_system": "histone γH2AX-foci", "assay": "γH2AX foci analysis (DNA damage)", "assay_type": "cell-based", "settings": "IC50 concentration, 24h incubation", "source_text": "ROS production may also lead to endoplasmatic reticulum stress-induced apoptosis. In general, many ruthenium(II) complexes with different ligands induce intracellular ROS [94, 95, 96, 97, 98, 99]. Moreover, the cytotoxic activity of Os(II) compounds can be inhibited by vitamin E co-treatment pointing to the contribution of ROS [88]. In addition to mitochondrial dysfunction, Ru(II) complexes may affect glycolysis or topoisomerase I/II, thus inducing necroptosis. Ru(II) compounds with modified pyrithione ligands were recently described to overcome platinum resistance in ovarian cancer cells by inducing cytostatic G1 arrest, TrxR inhibition, and cell membrane damage. […] Future studies may identify the specific target proteins enabling molecular docking studies and specific refinement of the organo-metal compound structure. Altogether, presented compounds may use some of these alternative modes of action as well, as we see efficient cell death but no cell cycle arrest induction by Ru3/Ru14. Furthermore, the ruthenium(II) core atom might be responsible for this effect because of the lack of anticancer behaviour of the ligand L14 (Supplementary Figure S8). To further confirm that Ru compounds use another mechanism of action, DNA damage analyses were conducted for Ru3 and Ru14 (Figure 8). […]", "data": [{"substance": "[(η^6-p-cymene)Ru(1-(3-ethoxyphenyl)-3-(methylthio)-3-thioxo-prop-1-en-1-olate-O,S)] [Ru14]", "values": [{"measurement": "γH2AX-foci induction", "value": "less γH2AX-foci as Cisplatin"}]}]}
